Measured values as given in article PMC8765781, “A platform of assays for the discovery of anti-Zika small-molecules with activity in a 3D-bioprinted outer-blood-retina model” (PLoS ONE, 2022).
Like-named read-outs stand apart in the source and are kept apart here. *1 amine or outer side, *2 acyl side, *3 side chain or, on linkers, in order; H or OH if unused. Where a SMILES comes first, the peptide text is derived from it. Bridges are numbered along the chain shown (N, C = ends). [ ]: non-standard residue; d: D form. The star is where a group is joined. pTerphenylCO(4''-OnC5H11) = CCCCCOc1ccc(-c2ccc(-c3ccc(C(=O)*)cc3)cc2)cc1; Orn(4R-OH,5R-OH) = O=C([C@H](C[C@@H](O)[C@@H](O)N[*:3])N[*:1])[*:2]; hTyr(3S-OH,4S-OH) = N[C@H](C(=O)O)[C@H](O)[C@@H](O)c1ccc(O)cc1; Pro(3S-OH,4S-Me) = C[C@H]1CN[C@H](C(=O)O)[C@H]1O; Hyp = O=C(O)[C@@H]1C[C@@H](O)CN1

How the values were obtained:
[1] = system: ZIKV-RLuc (Cambodian strain FSS13025); assay: microbe, parasite or virus in culture; format: cell-based, Zika virus
[2] = system: wild-type ZIKV (Ugandan MR766 strain) in Vero cells; assay: ZIKV cytopathic effect (CPE) inhibition qHTS assay, CellTiter-Glo readout; format: cell-based, Zika virus; settings: for AC50 / Emax: Zika virus, Vero; for Emax: read-out: Max response
[3] = read-out: Log AC50 (M) (converted)

CC(C)COCC(CN(Cc1ccccc1)c1ccccc1)N1CCCC1 (centres unmarked) [NCGC00015155-11]
CC-v2 (curve class classification v2 of the dose response curve) [1]: -2.2
Efficacy (difference between neutral response and maximum compound response) [1]: -53.208
Max Resp (difference between neutral response and compound response for highest compound concentration) [1]: -86.237

COc1cc2nc(N3CCN(C(=O)c4ccco4)CC3)nc(N)c2cc1OC [NCGC00016740-18]
Max Resp (difference between neutral response and compound response for highest compound concentration) [1]: -5.44

CN1CCN(CCCN2c3ccccc3Sc3ccc(S(=O)(=O)N(C)C)cc32)CC1.CS(=O)(=O)O.CS(=O)(=O)O [NCGC00017040-01]
CC-v2 (curve class classification v2 of the dose response curve) [1]: 4
Efficacy (difference between neutral response and maximum compound response) [1]: -28.971
Max Resp (difference between neutral response and compound response for highest compound concentration) [1]: -22.476

CCN(CC)Cc1cc(Nc2ccnc3cc(Cl)ccc23)ccc1O [NCGC00017063-03]
CC-v2 (curve class classification v2 of the dose response curve) [1]: 4
Efficacy (difference between neutral response and maximum compound response) [1]: 28.757
Max Resp (difference between neutral response and compound response for highest compound concentration) [1]: 20.219

CCOc1cc(N)c(Cl)cc1C(=O)NCC1CN(Cc2ccc(F)cc2)CCO1 (centres unmarked) [NCGC00160527-05]
CC-v2 (curve class classification v2 of the dose response curve) [1]: 4
Efficacy (difference between neutral response and maximum compound response) [1]: -16.441
Max Resp (difference between neutral response and compound response for highest compound concentration) [1]: -14.706

CN1CCC(=C2c3ccccc3CCc3sccc32)CC1 [NCGC00163169-02]
CC-v2 (curve class classification v2 of the dose response curve) [1]: 4
Efficacy (difference between neutral response and maximum compound response) [1]: 14.14
Max Resp (difference between neutral response and compound response for highest compound concentration) [1]: -9.44

C[C@H]1CC[C@@]2(OC1)O[C@H]1CC3[C@@H]4CC[C@@H]5C[C@@H](O[C@@H]6O[C@H](CO)[C@@H](O[C@@H]7O[C@H](CO[C@@H]8OC[C@@H](O)[C@H](O)[C@H]8O)[C@@H](O[C@@H]8O[C@H](CO)[C@H](O)[C@H](O)[C@H]8O)[C@H](O)[C@H]7O)[C@H](O)[C@H]6O)CC[C@]5(C)C4CC[C@]3(C)[C@H]1[C@@H]2C (some centres unmarked) [NCGC00385658-01]
AC50 ([2]; from Hill fit of the response curve, 50% of maximum activity response, 194 cherry-picked compounds, protocol name not given, read-out: AC50): 3.48e-06 M
AC50 ([2]; potency in log units (Molar) from Hill fit of the response curve, 194 cherry-picked compounds, protocol name not given, read-out: Log AC50 (converted)): 3.48e-06 M
Efficacy ([2]; difference between neutral response and maximum compound response): -25.029

C=C1C(=O)O[C@@H]2/C=C(\CO)CC/C=C(/C=O)C[C@H](O)[C@@H]12 [NCGC00385803-01]
Curve class [2]: -3
Efficacy [2]: -41.449
AC50 [2]: 6.51e-05 M
AC50 ([2]; read-out: Log AC50 (converted)): 6.51e-05 M
Emax [2]: -37.5%

C/C=C(/C)C(=O)OC1CC(C)(C)CC2C3=CCC4C5(C)CCC(O[C@@H]6O[C@H](C(=O)O)[C@@H](O)[C@H](O)[C@H]6O[C@@H]6O[C@H](CO)[C@H](O)[C@H](O[C@@H]7OC[C@H](O)[C@H](O)[C@H]7O[C@@H]7O[C@H](CO)[C@@H](O)[C@H](O)[C@H]7O)[C@H]6O)C(C)(C)C5CCC4(C)C3(C)C(O)C(O)C12CO (some centres unmarked) [NCGC00386019-01]
Efficacy [2]: -41.4
AC50 [2]: 9.77e-06 M
AC50 [2, 3]: 9.77e-06 M

CC(C)=CCC/C(C)=C/COCC1OC(n2ccc(=O)[nH]c2=O)C(O)C1O (centres unmarked) [NCGC00386057-01]
Efficacy [2]: -46.076
AC50 [2]: 4.53e-05 M
AC50 [2, 3]: 4.53e-05 M

CC1CCC2C(C)(C)C(O)CCC2(C)C12Cc1c(O)cc3c(c1O2)CNC3=N (centres unmarked) [NCGC00386084-01]
Efficacy [2]: -59.279
AC50 [2]: 5.08e-07 M
AC50 [2, 3]: 5.08e-07 M

COc1cccc(C)c1C(=O)O[C@@H]1C[C@H](O[C@H]2[C@H](O)C[C@H](O[C@@H]3CCC[C@H]4[C@H]3C=C[C@@H]3CCCC/C=C/[C@H]5C=C(C(=O)O)[C@@H](C)C[C@@]56OC(=O)C(=C6O)OC(=O)[C@@]34C)O[C@@H]2C)O[C@H](C)[C@H]1O [NCGC00386109-01]
Efficacy [2]: -37.18
AC50 [2]: 1.23e-05 M
AC50 [2, 3]: 1.23e-05 M

C=C1/C(=C/C=C2\CCC[C@]3(C)[C@@H]([C@H](C)/C=C/[C@@H](C)C(C)C)CC[C@@H]23)C[C@@H](O)C[C@@H]1O [NCGC00386145-01]
CC-v2 (curve class classification of the dose response curve) [2]: -3
Efficacy [2]: -42.433
AC50 [2]: 6.51e-05 M
AC50 [2, 3]: 6.51e-05 M

C=CC(C)(O)CC[C@@H]1[C@@]2(C)CCCC(C)(C)C2CC[C@@]1(C)O (some centres unmarked) [NCGC00386171-01]
Efficacy [2]: -26.101
AC50 [2]: 5.8e-05 M
AC50 [2, 3]: 5.8e-05 M

C=CC(=O)Nc1ccc2ncnc(Nc3cccc(Br)c3)c2c1 [NCGC00386260-02]
Curve class [2]: -3
Efficacy [2]: -35.975
AC50 [2]: 7.31e-05 M
AC50 ([2]; read-out: Log AC50 (converted)): > 4.6e-05 M
Emax [2]: -31.6%

Cc1cc(C)c(-c2csc(NC(=O)c3ccccc3)n2)c(C)c1 [NCGC00386342-01]
Curve class [2]: -3
Efficacy [2]: -75.252
AC50 [2]: 2.31e-05 M
AC50 ([2]; read-out: Log AC50 (converted)): 2.31e-05 M
Emax [2]: 8.19%

CCCCCOc1ccc(-c2ccc(-c3ccc(C(=O)N[C@H]4C[C@@H](O)[C@@H](O)NC(=O)[C@@H]5[C@@H](O)[C@@H](C)CN5C(=O)[C@H]([C@@H](C)O)NC(=O)[C@H]([C@H](O)[C@@H](O)c5ccc(O)cc5)NC(=O)[C@@H]5C[C@@H](O)CN5C(=O)[C@H]([C@@H](C)O)NC4=O)cc3)cc2)cc1 [NCGC00386349-01] ({pTerphenylCO(4''-OnC5H11)}-[Orn(4R-OH,5R-OH)]T[Hyp][hTyr(3S-OH,4S-OH)]T[Pro(3S-OH,4S-Me)]; lactam 1-C)
CC-v2 (curve class classification of the dose response curve) [2]: -2.2
Efficacy [2]: -31.74
AC50 [2]: 1.26e-05 M
AC50 [2, 3]: 1.26e-05 M

CN(CC[C@H](N)CC(=O)N[C@H]1C=C[C@@H](n2ccc(N)nc2=O)O[C@@H]1C(=O)O)C(=N)N [NCGC00386414-01]
CC-v2 (curve class classification of the dose response curve) [2]: -1.1
Efficacy [2]: -84.972
AC50 [2]: 2.66e-06 M
AC50 [2, 3]: 2.66e-06 M

CCOCCn1nc(CC)c2nc(N3CCC(C(=O)O)CC3)nc(Nc3cc(C)ccn3)c21 [NCGC00386619-01]
Efficacy [2]: -25.995
AC50 [2]: 4.11e-05 M
AC50 [2, 3]: 4.11e-05 M

CC(C)C[C@H](CO)Nc1nc(S[C@@H](C)c2ccccc2)nc2nc(N)sc12 [NCGC00386735-01]
Efficacy [2]: -23.549
AC50 [2]: 5.17e-05 M
AC50 [2, 3]: 5.17e-05 M

C=C(C)[C@@H]1CC=C(COC(=O)NC(=O)c2ncn3c(=O)n(C)nnc23)CC1 [NCGC00386754-01]
CC-v2 (curve class classification of the dose response curve) [2]: -3
Efficacy [2]: -41.908
AC50 [2]: 6.51e-05 M
AC50 [2, 3]: 6.51e-05 M

Cc1cc(N2CCN(C(=O)Oc3ccc(-c4ccccc4)cn3)CC2)c2ccccc2n1 [NCGC00386928-01]
CC-v2 (curve class classification of the dose response curve) [2]: -3
Efficacy [2]: -62.282

Cc1cc(C(=O)Nc2cc(Nc3ccc4c(/C=C/c5ccccn5)[nH]nc4c3)ccc2F)n(C)n1 [NCGC00387023-01]
Efficacy [2]: -55.32
AC50 [2]: 3.66e-05 M
AC50 [2, 3]: 3.66e-05 M

CC1(C)CC=C(C#Cc2ccccc2)c2cc(/C=C/c3ccc(C(=O)O)cc3)ccc21 [NCGC00387103-01]
CC-v2 (curve class classification of the dose response curve) [2]: -2.2
Efficacy [2]: -97.274
AC50 [2]: 5.17e-05 M
AC50 [2, 3]: 5.17e-05 M

CCOC(=O)C1=C(N)Oc2ccc(Cl)cc2C1C(C#N)C(=O)OCC (centres unmarked) [NCGC00387181-02]
CC-v2 (curve class classification of the dose response curve) [2]: -2.2
Efficacy [2]: -45.481
AC50 [2]: 3.66e-05 M
AC50 [2, 3]: 3.66e-05 M

Cc1cc(C(=O)Nc2cccc(C(=O)Nc3cccc(C(F)(F)F)c3)c2)on1 [NCGC00387256-02]
Efficacy [2]: -18.226
AC50 [2]: 7.31e-05 M
AC50 [2, 3]: 7.31e-05 M

Cc1cc2c(F)c(Oc3ncnn4cc(OCC(C)OC(=O)C(C)N)c(C)c34)ccc2[nH]1 (centres unmarked) [NCGC00389340-01]
Curve class [2]: -3
Efficacy [2]: -57.426
Emax [2]: -49.7%

Cc1cc(OCCC[S+](C)(=O)[O-])cc(C)c1-c1cccc(COc2ccc3c(c2)OCC3CC(=O)O)c1 (centres unmarked) [NCGC00389617-01]
CC-v2 (curve class classification of the dose response curve) [2]: -3
Efficacy [2]: -41.849
AC50 [2]: 2.31e-05 M
AC50 [2, 3]: 2.31e-05 M

Cc1cc2c(F)c(Oc3ncnn4cc(OCC(C)O)c(C)c34)ccc2[nH]1 (centres unmarked) [NCGC00389770-01]
Efficacy [2]: -29.933
AC50 [2]: 6.51e-05 M
AC50 [2, 3]: 6.51e-05 M

COc1cc(N(C)CCN(C)C)c(N)cc1Nc1nccc(-c2cn(C)c3ccccc23)n1 [NCGC00390638-01]
CC-v2 (curve class classification of the dose response curve) [2]: -3
Efficacy [2]: -48.353
AC50 [2]: 6.51e-05 M
AC50 [2, 3]: 6.51e-05 M

CCC(=C(c1ccc(OCCN2CCCC2)cc1)c1ccc(OCCN2CCCC2)cc1)c1ccccc1 [NCGC00408918-01]
CC-v2 (curve class classification of the dose response curve) [2]: -3
Efficacy [2]: -39.621
AC50 [2]: 5.8e-05 M
AC50 [2, 3]: 5.8e-05 M

C=CC(=O)N1CCCN(c2cc(NCCC(=O)O)nc(-c3ccccn3)n2)CC1 [NCGC00420854-01]
Efficacy [2]: -33.164
AC50 [2]: 5.8e-05 M
AC50 [2, 3]: 5.8e-05 M

C=Cc1cc2oc(-c3ccc(O)c(F)c3)nc2cc1O [NCGC00485115-01]
Efficacy [2]: -24.649
AC50 [2]: 6.51e-05 M
AC50 [2, 3]: 6.51e-05 M

COC(=O)C1=C(C)NC(C)=C(C(=O)OC)C1c1cccc(NC(=O)NCCCN2CCC(c3cccc(OC)c3)CC2)c1 [NCGC00485144-01]
Efficacy [2]: -27.731
AC50 [2]: 7.31e-05 M
AC50 [2, 3]: 7.31e-05 M

C[C@H]1CCC[C@H](O)CCC/C=C/c2cc(O)cc(O)c2C(=O)O1 [NCGC00485224-01]
CC-v2 (curve class classification of the dose response curve) [2]: -3
Efficacy [2]: -58.539
AC50 [2]: 6.51e-05 M
AC50 [2, 3]: 6.51e-05 M

C[C@@]1(O)[C@H](O)[C@@H](CO)O[C@H]1n1cnc2c(=O)[nH]c(N)nc21 [NCGC00485409-01]
Efficacy [2]: -27.977
AC50 [2]: 3.66e-05 M
AC50 [2, 3]: 3.66e-05 M

O=C(O)c1ccc2c(c1)nc(Nc1cccc(Cl)c1)c1ccncc12 [NCGC00485907-01]
Efficacy [2]: -41.903
AC50 [2]: 6.51e-05 M
AC50 [2, 3]: 6.51e-05 M

C/C(=N\NC(=N)N)c1cc(NC(=O)CCCCCCCCC(=O)Nc2cc(/C(C)=N/NC(=N)N)cc(/C(C)=N/NC(=N)N)c2)cc(/C(C)=N/NC(=N)N)c1 [NCGC00487056-01]
CC-v2 (curve class classification of the dose response curve) [2]: -2.2
Efficacy [2]: -56.895
AC50 [2]: 5.8e-05 M
AC50 [2, 3]: 5.8e-05 M
